Measured values published in article PMC12454493, “Insight on novel sulfamoylphenyl pyrazole derivatives as anticancer carbonic anhydrase inhibitors” (Molecular Diversity, 2024).

How the values were obtained:
Assay type in all cases: cell-based
A549/ATCC = experiment: NCI-60 one-dose SRB screen (Non-Small Cell Lung Cancer); conditions: Homo sapiens, single dose 10 µM, 48 h, read-out: Growth inhibition percent (GI %)
Procedure: (§1) The National Cancer Institute (NCI) Developmental Therapeutic Program (www.dtp.nci.nih.gov) selected the 20 novel synthesized compounds 4a-e, 5a-e, 6a-c, 9a-e, 10 and 11 to test for their anticancer activity at a single dose of 10 µM using SRB assay. […] Supplementary Data S3; Table S1 presents the detailed screening results of the most promising compounds. The preliminary screening’s detailed results for the remaining compounds are elucidated in the (Supplementary Data S3; Table S2).
(§2) The guidelines of the Drug Evaluation Branch’s protocol at the NCI in Bethesda served as the basis for the in vitro anticancer screening assays. at one dose 10 µM against a panel of 60 cancer cell lines. The human tumor cell lines used belonged to nine panels: leukemia, melanoma, lung, colon, CNS, ovarian, renal, prostate and breast cancers using the sulforhodamine B (SRB) assay in a 48 h drug exposure protocol.

EKVX = experiment: as above; conditions: Homo sapiens, single dose 10 µM, 48 h, read-out: Growth inhibition percent (GI %)
Procedure: as §1, §2

HOP-62 = experiment: as above; conditions: Homo sapiens, single dose 10 µM, 48 h, read-out: Growth inhibition percent (GI %)
Procedure: as §1, §2

NCI-H522 = experiment: as above; conditions: Homo sapiens, single dose 10 µM, 48 h, read-out: Growth inhibition percent (GI %)
Procedure: as §1, §2

A498 = experiment: NCI-60 one-dose SRB screen (Renal Cancer); conditions: Homo sapiens, single dose 10 µM, 48 h, read-out: Growth inhibition percent (GI %)
Procedure: as §1, §2

TK-10 = experiment: NCI-60 one-dose SRB screen (Renal Cancer); conditions: Homo sapiens, single dose 10 µM, 48 h, read-out: Growth inhibition percent (GI %)
Procedure: as §1, §2

RXF 393 = experiment: NCI-60 one-dose SRB screen (Renal Cancer); conditions: Homo sapiens, single dose 10 µM, 48 h, read-out: Growth inhibition percent (GI %)
Procedure: as §1, §2

ACHN = experiment: NCI-60 one-dose SRB screen (Renal Cancer); conditions: Homo sapiens, single dose 10 µM, 48 h, read-out: Growth inhibition percent (GI %)
Procedure: as §1, §2

786-0 = experiment: NCI-60 one-dose SRB screen (Renal Cancer); conditions: Homo sapiens, single dose 10 µM, 48 h, read-out: Growth inhibition percent (GI %)
Procedure: as §1, §2

CAKI-1 = experiment: NCI-60 one-dose SRB screen (Renal Cancer); conditions: Homo sapiens, single dose 10 µM, 48 h, read-out: Growth inhibition percent (GI %)
Procedure: as §1, §2

UO-31 = experiment: NCI-60 one-dose SRB screen (Renal Cancer); conditions: Homo sapiens, single dose 10 µM, 48 h, read-out: Growth inhibition percent (GI %)
Procedure: as §1, §2

SW-620 = experiment: NCI-60 one-dose SRB screen (Colon Cancer); conditions: Homo sapiens, single dose 10 µM, 48 h, read-out: Growth inhibition percent (GI %)
Procedure: as §1, §2

HCT-15 = experiment: NCI-60 one-dose SRB screen (Colon Cancer); conditions: Homo sapiens, single dose 10 µM, 48 h, read-out: Growth inhibition percent (GI %)
Procedure: as §1, §2

KM12 = experiment: NCI-60 one-dose SRB screen (Colon Cancer); conditions: Homo sapiens, single dose 10 µM, 48 h, read-out: Growth inhibition percent (GI %)
Procedure: as §1, §2

COLO 205 = experiment: NCI-60 one-dose SRB screen (Colon Cancer); conditions: Homo sapiens, single dose 10 µM, 48 h, read-out: Growth inhibition percent (GI %)
Procedure: as §1, §2

HCC-2998 = experiment: NCI-60 one-dose SRB screen (Colon Cancer); conditions: Homo sapiens, single dose 10 µM, 48 h, read-out: Growth inhibition percent (GI %)
Procedure: as §1, §2

HCT-116 = experiment: NCI-60 one-dose SRB screen (Colon Cancer); conditions: Homo sapiens, single dose 10 µM, 48 h, read-out: Growth inhibition percent (GI %)
Procedure: as §1, §2

HT29 = experiment: NCI-60 one-dose SRB screen (Colon Cancer); conditions: Homo sapiens, HT-29, single dose 10 µM, 48 h, read-out: Growth inhibition percent (GI %)
Procedure: as §1, §2

MDA-MB-468 = experiment: NCI-60 one-dose SRB screen (Breast Cancer); conditions: Homo sapiens, single dose 10 µM, 48 h, read-out: Growth inhibition percent (GI %)
Procedure: as §1, §2

T-47D = experiment: NCI-60 one-dose SRB screen (Breast Cancer); conditions: Homo sapiens, T47D, single dose 10 µM, 48 h, read-out: Growth inhibition percent (GI %)
Procedure: as §1, §2

HS 578T = experiment: NCI-60 one-dose SRB screen (Breast Cancer); conditions: Homo sapiens, single dose 10 µM, 48 h, read-out: Growth inhibition percent (GI %)
Procedure: as §1, §2

BT-549 = experiment: NCI-60 one-dose SRB screen (Breast Cancer); conditions: Homo sapiens, single dose 10 µM, 48 h, read-out: Growth inhibition percent (GI %)
Procedure: as §1, §2

MCF-7 = experiment: NCI-60 one-dose SRB screen (Breast Cancer); conditions: Homo sapiens, MCF7, single dose 10 µM, 48 h, read-out: Growth inhibition percent (GI %)
Procedure: as §1, §2

MDA-MB-231/ATCC = experiment: NCI-60 one-dose SRB screen (Breast Cancer); conditions: Homo sapiens, single dose 10 µM, 48 h, read-out: Growth inhibition percent (GI %)
Procedure: as §1, §2

HL-60(TB) = experiment: NCI-60 one-dose SRB screen (Leukemia); conditions: Homo sapiens, single dose 10 µM, 48 h, read-out: Growth inhibition percent (GI %)
Procedure: as §1, §2

K-562 = experiment: NCI-60 one-dose SRB screen (Leukemia); conditions: Homo sapiens, K562, single dose 10 µM, 48 h, read-out: Growth inhibition percent (GI %)
Procedure: as §1, §2

SR = experiment: NCI-60 one-dose SRB screen (Leukemia); conditions: Homo sapiens, single dose 10 µM, 48 h, read-out: Growth inhibition percent (GI %)
Procedure: as §1, §2

RPMI-8226 = experiment: NCI-60 one-dose SRB screen (Leukemia); conditions: Homo sapiens, single dose 10 µM, 48 h, read-out: Growth inhibition percent (GI %)
Procedure: as §1, §2

MOLT-4 = experiment: NCI-60 one-dose SRB screen (Leukemia); conditions: Homo sapiens, single dose 10 µM, 48 h, read-out: Growth inhibition percent (GI %)
Procedure: as §1, §2

CCRF-CEM = experiment: NCI-60 one-dose SRB screen (Leukemia); conditions: Homo sapiens, single dose 10 µM, 48 h, read-out: Growth inhibition percent (GI %)
Procedure: as §1, §2

CCOC(=O)c1ccc(NC(=O)COC(=O)c2cn(-c3ccc(S(N)(=O)=O)cc3)nc2-c2ccccc2)cc1 [Compound 5a, 2-[(4-(Ethoxycarbonyl)phenyl)amino]-2-oxoethyl 3-phenyl-1-(4-sulfamoylphenyl)-1H-pyrazole-4-carboxylate]
inhibition at 10 µM (A549/ATCC): 60.3% | inhibition at 10 µM (EKVX): 49% | inhibition at 10 µM (HOP-62): 19.3% | inhibition at 10 µM (NCI-H522): 76.8% | inhibition at 10 µM (A498): 25.3% | inhibition at 10 µM (TK-10): 40.1% | inhibition at 10 µM (RXF 393): 66.5% | inhibition at 10 µM (ACHN): 76.1% | inhibition at 10 µM (786-0): 66.9% | inhibition at 10 µM (CAKI-1): 61.6% | inhibition at 10 µM (UO-31): 62.7% | inhibition at 10 µM (SW-620): 47.1% | inhibition at 10 µM (HCT-15): 72.7% | inhibition at 10 µM (KM12): 73.6% | inhibition at 10 µM (COLO 205): 39.1% | inhibition at 10 µM (HCC-2998): 63.9% | inhibition at 10 µM (HCT-116): 75.8% | inhibition at 10 µM (HT29): 78.8% | inhibition at 10 µM (MDA-MB-468): 62% | inhibition at 10 µM (T-47D): 69.7% | inhibition at 10 µM (HS 578T): 44.6% | inhibition at 10 µM (BT-549): 64.1% | inhibition at 10 µM (MCF-7): 81.6% | inhibition at 10 µM (MDA-MB-231/ATCC): 35.8% | inhibition at 10 µM (HL-60(TB)): 92.1% | inhibition at 10 µM (K-562): 78.7% | inhibition at 10 µM (SR): 82.1% | inhibition at 10 µM (RPMI-8226): 86.8% | inhibition at 10 µM (MOLT-4): 89% | inhibition at 10 µM (CCRF-CEM): 82%
